Earlier results on one compound are cited in patent US20140141044A1, “Cord Colitis Syndrome Pathogen” (Dana-Farber Cancer Institute, Inc., priority 2012, published 2014).

For the data set, the system named is B. enterica. To be noted: direct or inferred from related organisms.

Take `Cc1ncc([N+](=O)[O-])n1CCO` [metronidazole]: the “sensitivity of B. enterica” value is “direct or inferred sensitivity”.
